Measured values published in patent US11116757B2 (priority 2015, dated 2021).
Entries after “also recorded” stand apart in the source; their conditions may differ.

What was measured:
HCC95 cancer cells = experiment: Cullin neddylation in cancer cells (cell lysis and western blot); type: cell-based
Experimental: Cell pellets harvested from a 6 well dish were resuspended in 30-40 μL of lysis buffer (50 mM Tris, 150 mM NaCl, 0.5% NP-40, 0.1% SDS, 6.5 M Urea, 2 mM 1,10-orthophenanthroline, 1× Halt Protease and Phosphatase inhibitor cocktail (ThermoFisher), 0.25 kU Universal Nuclease (ThermoFisher), pH 7.5). Cell pellet suspensions were incubated on ice for 25 minutes with occasional mixing by pipetting up and down. Lysates were cleared by centrifugation at 13 K rpm for 20 minutes and the supernatant was removed as total cell lysate sample. Protein concentration of the cell lysate was determined by BCA assay (Pierce) using BSA as a control. Cell lysates were diluted into 2×SDS-PAGE sample buffer such that 25 μg of total protein was loaded per well. […] Primary antibodies were prepared in blocking buffer and incubated with membranes overnight at 4° C. with rocking. Membranes were extensively washed in 1×TBS, 0.1% Tween-20. Secondary antibodies were prepared in blocking buffer according to the manufactures recommendations and incubated with membranes for 1 hour at room temperature. After extensive washing the membranes were developed with SuperSignal West Pico Chemiluminescent substrate (ThermoFisher) and developed by film exposure (HyBlot CL, Denville scientific).

U-2 OS cells = experiment: Electron microscopy of compound treated cells; type: cell-based
HCC95 cells = experiment: Soft agar anchorage independent growth assay; type: cell-based; settings: 10 μM
[1] = Seven day spermatogenesis study; type: in vivo; settings: for Weight: oral gavage, B.I.D.; for Motility / Sperm Count / Viability (%): oral gavage B.I.D.
[2] = preliminary experiment
in vivo = settings: for concentration at 3 day / concentration at 7 day / concentration at 24.4 h / concentration at […] / concentration at 1 h: male; for concentration at 3 day: Day 3; for concentration at 7 day: Day 7
endosome maturation = experiment: Endosome maturation (LAMP1 positive vesicles) imaging; type: cell-based
DCN1-UBC12 interaction = DCN1-UBC12 interaction (Homo sapiens (Human), UniProt Q96GG9); experiment: biochemical; type: binding; settings: read-out: TR-FRET IC50
Chain of DCN1-UBC12 interaction (Q96GG9 60-248 limits assumed): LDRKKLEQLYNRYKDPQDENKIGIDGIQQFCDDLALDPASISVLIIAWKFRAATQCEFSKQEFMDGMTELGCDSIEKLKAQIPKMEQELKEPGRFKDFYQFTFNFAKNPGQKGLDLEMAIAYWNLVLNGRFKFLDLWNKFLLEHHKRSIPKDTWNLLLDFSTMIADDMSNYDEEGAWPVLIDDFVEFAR

[3] = Plasma Concentration (μM), 50 mg/kg
[4] = Plasma Concentration (μM), 100 mg/kg
[5] = Plasma Concentration, Repeat Dose (0 and 7.5 hr)
[6] = Plasma Concentration, Single Dose (0 hr)
[7] = Testis Concentration (μM), 50 mg/kg
[8] = Testis Concentration (μM), 100 mg/kg
[9] = Testis Concentration, Repeat Dose (0 and 7.5 hr)
[10] = Testis Concentration, Single Dose (0 hr)

For `CCCCN1CCC(N(Cc2ccccc2)C(=O)Nc2ccc(Cl)c(Cl)c2)CC1` [A7], the “levels of neddylated Cullins / cullin neddylation” value (HCC95 cancer cells) was “reduce the levels of neddylated Cullins; also recorded: selectively inhibit cullin neddylation”, the “vacuolar structures by electron microscopy” value (U-2 OS cells) was “presence of large vacuolar structures” and the anchorage independent growth (HCC95 cells) was “inhibit the anchorage independent growth of HCC95 cells”. For the same compound, the Weight ([1]; 50 mpk) was 146.3 ± 27.7 mg, the Weight ([1]; 100 mpk) was 150.1 ± 18.9 mg and the Motility ([1]; animal 50 mpk-1) was “Stationary”. For the same compound, the “Sperm Count” value ([1]; animal 50 mpk-1) was “Low”, the “Viability (%)” value ([1]; animal 50 mpk-1) was <20% and the Motility ([1]; animal 50 mpk-2) was “Stationary”. For the same compound, the “Sperm Count” value ([1]; animal 50 mpk-2) was “Low”, the “Viability (%)” value ([1]; animal 50 mpk-2) was 0% and the Motility ([1]; animal 50 mpk-3) was “Good, erratic”. The “Sperm Count” value ([1]; animal 50 mpk-3) was “Normal”, the “Viability (%)” value ([1]; animal 50 mpk-3) was >50% and the Motility ([1]; animal 100 mpk-1) was “No movement”. For the same compound, the “Sperm Count” value ([1]; animal 100 mpk-1) was “Low”, the “Viability (%)” value ([1]; animal 100 mpk-1) was <10% and the Motility ([1]; animal 100 mpk-2) was “Erratic”. For the same compound, the “Sperm Count” value ([1]; animal 100 mpk-2) was “Low”, the “Viability (%)” value ([1]; animal 100 mpk-2) was <5% and the Motility ([1]; animal 100 mpk-3) was “Limited”. The “Sperm Count” value ([1]; animal 100 mpk-3) was “Low”, the “Viability (%)” value ([1]; animal 100 mpk-3) was <10% and the maximum serum concentration [2] was 1.5 to 3 µM. For the same compound, the half-life (in vivo) was 4 to 5 h, the concentration at 3 day (in vivo; [3]) was 2.7 ± 2.4 µM and the concentration at 7 day (in vivo; [3]) was 1.7 ± 1.2 µM. The concentration at 3 day (in vivo; [4]) was 2.4 ± 1.2 µM, the concentration at 7 day (in vivo; [4]) was 1.4 ± 0.6 µM and the concentration at 24.4 h (in vivo; [5]) was 0.62 ± 0.16 µM. For the same compound, the concentration at […] (in vivo; [5]) was 4.8 ± 1.3 µM, the concentration at 1 h (in vivo; [6]) was 3.7 ± 0.95 µM and the concentration at 24.4 h (in vivo; [6]) was 0.47 ± 0.32 µM. The concentration at 3 day (in vivo; [7]) was 11.6 ± 3.4 µM, the concentration at 7 day (in vivo; [7]) was 8.25 ± 4.1 µM and the concentration at 3 day (in vivo; [8]) was 25.9 ± 11.1 µM. The concentration at 7 day (in vivo; [8]) was 31.2 ± 12.8 µM, the concentration at 24.4 h (in vivo; [9]) was 6.2 ± 5.3 µM and the concentration at […] (in vivo; [9]) was 16.7 ± 3.1 µM. It also gave a concentration at 1 h (in vivo; [10]) of 2.1 ± 0.74 µM and a concentration at 24.4 h (in vivo; [10]) of 4.4 ± 3.3 µM.

With `CCCC(C)N1CCC(N(Cc2ccccc2)C(=O)Nc2cccc(C(F)(F)F)c2)CC1` (stereo not drawn) [A15, 1-Benzyl-1-(1-(Pentan-2-yl)Piperidin-4-yl)-3-(3-(Trifluoromethyl)Phenyl)Urea] the “effect on endosome maturation” value (endosome maturation; 10 μM on cells) was “affect endosome maturation” and the “vacuolar structures by electron microscopy” value (U-2 OS cells) was “presence of large vacuolar structures”.

In the case of `C=CC(=O)Nc1cccc(CN(C(=O)Nc2cccc(C(F)(F)F)c2)C2CCN(C(C)CCC)CC2)c1` (stereo not drawn) [A18], the IC50 (DCN1-UBC12 interaction) is reported as 111 nM, the “levels of neddylated Cullins / cullin neddylation” value (HCC95 cancer cells) is reported as “reduce the levels of neddylated Cullins; also recorded: selectively inhibit cullin neddylation” and the anchorage independent growth (HCC95 cells) is reported as “inhibit the anchorage independent growth of HCC95 cells”.

In the case of `CCCCN1CCC(N(Cc2ccc3c(c2)OCO3)C(=O)Nc2cc(F)cc(C(F)(F)F)c2)CC1` [A83], the IC50 (DCN1-UBC12 interaction) is reported as 901 nM and the “effect on endosome maturation” value (endosome maturation; 3 μM on cells) is reported as “affect endosome maturation”.
